Measurements from patent US10758517B2, “mPGES-1 inhibitor for the treatment of osteoarthritis pain” (Glenmark Pharmaceuticals S.A., priority 2017, dated 2020).
Marks after values point to notes of the source that are not given here.

System: LPS-induced PGE2 release
Experiment: Ex vivo LPS-induced PGE2 release in whole blood, single dose crossover versus celecoxib (Example 1, Part 3)
Design: species or system human
Settings: single oral dose 400 mg, fasted healthy subjects
Procedure: Part 2 was a single-dose, double-blind study in a single cohort of elderly subjects. Part 3 was an open-label, randomized, 2-period, single-dose, crossover study to compare effects of the highest tolerated Compound I dose and celecoxib on prostanoid metabolism in healthy adult subjects.
In Part 3, Compound I was administered at a dose of 1000 mg after fasting. All subjects received Compound I and all subjects received 400 mg celecoxib in a cross-over study design.
In Parts 1a and 3, whole blood samples were incubated and analyzed for lipopolysaccharide (LPS)-induced prostaglandin PGE2 release. In Part 3, urine samples were collected for analysis of prostanoid metabolites.
Summary statistics were presented for the PK, pharmacodynamic (PD) and safety data, as appropriate. PK parameters following single oral doses of Compound I were determined from the plasma concentrations of Compound I using non-compartmental procedures in WinNonlin Dose proportionality was assessed using a power model, with tmax analyzed using the Kruskal-Wallis test. The effect of food on PK was assessed at the 100 and 250 mg doses using a mixed effects model. The effect of age on PK was assessed for elderly (>65 years) versus non-elderly (<65 years) at the 250 mg dose level in Parts 1a and 2, using an analysis of variance (ANOVA) with age as a fixed effect. For PD analyses, percent decrease of ex vivo LPS-induced PGE2 release was calculated. For Part 3, urinary excretion of prostanoid metabolites was also evaluated. The data are presented as absolute, as well as creatinine normalized urinary biomarker amounts, along percent change from baseline over a definite time interval. The percent change from baseline in urinary biomarkers was assessed using an analysis of covariance (ANCOVA) model
Percent change in ex vivo LPS-induced PGE2 release in whole blood is the pharmacodynamic (PD) biomarker. The PGE2 levels in whole blood were estimated using the homogeneous time-resolved fluorescence method.
Concentrations below the limit of quantification were treated as ½ the lower limit of quantification for calculation.
Time points where unstimulated prostaglandin E2 (PGE2) concentration was more than 3 times greater than the mean unstimulated PGE2 and equal to or greater than ½ baseline value for an individual subject were not included in the calculation of % inhibition.

Cc1ccc(-c2cc(C(F)(F)F)nn2-c2ccc(S(N)(=O)=O)cc2)cc1 [Celecoxib, celecoxib, reference compound]
EAUC0-24 h, LS mean: 1421 % · h
ETmax (time to reach maximum effect), Median: 6.00 h
Epeak (maximum % inhibition), LS mean: 89.1%
EAUC0-336 h, LS mean (N = 18): −10159^a % · h
